Measurements taken from patent US8623917B2, “Uses of prostacyclin analogs” (The Regents of the University of Colorado, a body corporate, priority 2005, dated 2014).

Legend:
[1] = test system: MCA/BHT-induced lung tumors; test: MCA/BHT lung tumorigenesis protocol, oral Iloprost in diet; assay type: in vivo, FVB/N mice
Method: (§1) Transgenic mice (Tg^+) and wildtype littermates (Tg^−), 8 to 12 weeks of age, were subjected to two distinct lung carcinogenesis protocols. In the first model, urethane (ethyl carbamate), a carcinogen which selectively induces pulmonary adenomas through genetic mutations in the oncogene ras, was administered in a single intraperitoneal (ip) dose. […] BHT is a tumor promoter and induces reversible pulmonary damage characterized by alveolar type I cell necrosis, selective pulmonary inflammation, and hyperplasia of alveolar type II cells. Controls for both models consisted of mice injected with vehicle alone. The oral administration of Iloprost was investigated and found to have a similar beneficial effects to PGIS overexpression. FVB/N mice were fed a diet of low (0.1%) or high (3.0%) dose Iloprost continuously throughout the experiment and then were subjected to tumorigenesis protocols with either urethane or MCA/BHT. At the conclusion of the experiments, animals were euthanized and tumors enumerated.

[2] = test system: cancer metastasis to the lung; conditions: Iloprost administered to mice; cited from earlier work
[3] = test system: urethane-induced lung tumors; test: Urethane lung tumorigenesis protocol, oral Iloprost in diet; assay type: in vivo, FVB/N mice
Method: as §1

[4] = 3.0% Iloprost diet compared with 0.1%
[5] = diet of low (0.1%) or high (3.0%) dose Iloprost continuously

CC#CCC(C)[C@H](O)/C=C/[C@@H]1[C@H]2C/C(=C/CCCC(=O)O)C[C@H]2C[C@H]1O (some centres unmarked) [Iloprost]
reduction in multiplicity, high versus low dose [1, 4]: greater reduction in multiplicity | tumor multiplicity [1, 5]: significant reduction in tumor multiplicity | prevention of cancer metastasis to the lung [2]: did not prevent cancer metastasis to the lung | reduction in multiplicity, high versus low dose [3, 4]: greater reduction in multiplicity | tumor multiplicity [3, 5]: significant reduction in tumor multiplicity
